Experimental data: patent US20120142645A1, “NEUROACTIVE STEROID COMPOSITIONS AND METHODS OF USE FOR LOWERING CHOLESTEROL” (priority 2009, published 2012)
“Also recorded” adds a separate entry of the source. Marks after values point to notes of the source that are not given here.

Assays:
[1] = system: patients with schizophrenia or schizoaffective disorder; test: MATRICS/MCCB cognitive battery; same 8-week adjunctive pregnenolone trial; assay type: in vivo, human; settings: for MATRICS/MCCB Composite score: head prints Raw Scores; for MATRICS/MCCB Composite score / MATRICS/MCCB BACS, symbol coding subtest raw score / MATRICS/MCCB Brief Visuospatial Memory Test-Rev. raw score / MATRICS/MCCB Category fluency test, animal naming raw score / MATRICS/MCCB Continuous Performance Test (CPT), Identical Pairs version-Average d′ raw score / MATRICS/MCCB Hopkins Verbal Learning Test raw score / MATRICS/MCCB Letter-Number Span test raw score / MATRICS/MCCB Mayer-Salovey-Caruso Emotional Intelligence Test, managing emotions branch raw score / MATRICS/MCCB Neuropsychological Assessment Battery, mazes subtest raw score / MATRICS/MCCB Trail Making Test, Part A raw score / MATRICS/MCCB Wechsler Memory Scale, 3rd ed., spatial span subtest raw score: mean, n = 9; for MATRICS/MCCB Composite, difference PG vs placebo in T-score change: column head prints Placebo
Protocol: Study Design and Subjects. Disclosed herein is a placebo-controlled, double-blind, parallel group, randomized trial of adjunctive pregnenolone for the treatment of cognitive and negative symptoms in patients with schizophrenia or schizoaffective disorder. […] Patients received a total of 6 study visits, which took place every two weeks. […] The trial was conducted at a single site, the Durham Veterans Affairs Medical Center in Durham, N.C. The protocol was approved by the local institutional review board and conducted under FDA Investigational New Drug (IND) #71,768. The ClinicalTrials.gov number for this study is NCT00560937.
Cognitive symptoms were assessed by the Brief Assessment of Cognition in Schizophrenia (BAGS; Keefe et al., 2004; Keefe et al., 2008), and the MATRICS Consensus Cognitive Battery (Nuechterlein & Green, 2006; Nuechterlein et al., 2008). It is believed that no clinical trial to date has reported both of these cognitive assessments within the same study. The BAGS and MATRICS batteries were administered two weeks following the screening visit (following the completion of the two-week placebo lead-in phase at Visit 2), and at two 4-week intervals thereafter (at midpoint following randomization at Visit 4 and at the final visit (Visit 6).
The BAGS cognitive battery utilizes the following assessments in the respective targeted domains (Keefe et al., 2004; Keefe et al., 2008): list learning (verbal memory), digit sequencing task (working memory), token motor task (motor speed), verbal fluency (processing speed), symbol coding (attention and processing speed), and the Tower of London test (executive functions/reasoning and problem solving). The MATRICS cognitive battery utilizes the following assessments: Trail Making Test, Part A and the symbol coding subtest of the BAGS (both assess speed of processing), the Hopkins Verbal Learning Test-Revised, immediate recall (three learning trials only) [verbal learning], the Wechsler Memory Scale, 3rd ed., spatial span subtest (working memory, nonverbal), the Letter-Number Span test (working memory, verbal), the Neuropsychological Assessment Battery, mazes subtest (reasoning and problem solving), the Brief Visuospatial Memory Test-Revised (visual learning), the Category Fluency Test (animal naming) [speed of processing], the Mayer-Salovey-Caruso Emotional Intelligence Test, managing emotions branch (social cognition), and the Continuous Performance Test, Identical Pairs version (attention/vigilance) Of note, the symbol coding subtest of the BAGS was administered only once per visit at Visits 2, 4, and 6, although it is a component of both the BAGS and MATRICS cognitive batteries, in order to avoid potentially confounding practice effects.

[2] = system: patients with schizophrenia or schizoaffective disorder; test: Side effect profile and tolerability (Hillside AE Form); same trial; assay type: in vivo, human
Excerpt: During the screening visit (Visit 1), patients received a physical exam, vital signs, and electrocardiogram (EKG), as well as baseline laboratory measures consisting of serum electrolytes, glucose, creatinine, blood urea nitrogen (chemistry 7 panel), liver function tests, complete blood count (CBC), urinalysis, urine toxicology test, thyroid stimulating hormone (TSH), and prolactin, and serum pregnancy test if female. These tests were also repeated at the completion of the study (Visit 6). In addition, patients received an interim EKG 4 weeks post-randomization, as well as a serum pregnancy test if female (Visit 4). Patients also received a chemistry 7 panel, CBC, and liver function tests at Visits 2, 3, 4, and 5 (i.e., at all study visits). Psychiatric symptoms were assessed at baseline using the Scale for the Assessment of Negative Symptoms (Andreasen, 1983), the Positive and Negative Symptom Scale (PANSS; Kay et al., 1987), the Calgary Depression Rating Scale (CDRS; Addington et al., 1990), the Clinical Global Impressions Improvement (CGI-I) and Severity (CGI-S) scales, the Barnes Akathisia Scale (BAS; Barnes, 1989), the Simpson Angus Scale for Extrapyramidal Symptoms (SAS; Simpson & Angus, 1970), the Quality of Life Scale (QOL; Heinrichs et al., 1984), and the Hillside Side Effects Scale. One research nurse with five years of experience in the conduction of schizophrenia clinical trials completed both psychiatric and cognitive assessments throughout the study, and was trained to one point of divergence on each PANSS item.

[3] = Week 0 to Week 8, listed as pregnenolone
[4] = change from baseline pre-randomization, n = 9
[5] = change from baseline pre-randomization, n = 9, mild in all subjects
[6] = change from baseline pre-randomization, n = 9, mild in all subjects, listed as pregnenolone

Compound: CC(=O)[C@H]1CC[C@H]2[C@@H]3CC=C4C[C@@H](O)CC[C@]4(C)[C@H]3CC[C@]12C [PG, pregnenolone]
- MATRICS/MCCB Composite score ([1]; Week 0 (baseline)): 29.00
- MATRICS/MCCB BACS, symbol coding subtest raw score ([1]; Week 0 (baseline)): 36.89
- MATRICS/MCCB Brief Visuospatial Memory Test-Rev. raw score ([1]; Week 0 (baseline)): 20.22
- MATRICS/MCCB Category fluency test, animal naming raw score ([1]; Week 0 (baseline)): 18.33
- MATRICS/MCCB Continuous Performance Test (CPT), Identical Pairs version-Average d′ raw score ([1]; Week 0 (baseline)): 1.42
- MATRICS/MCCB Hopkins Verbal Learning Test raw score ([1]; Week 0 (baseline)): 18.56
- MATRICS/MCCB Letter-Number Span test raw score ([1]; Week 0 (baseline)): 11.44
- MATRICS/MCCB Mayer-Salovey-Caruso Emotional Intelligence Test, managing emotions branch raw score ([1]; Week 0 (baseline)): 86.89
- MATRICS/MCCB Neuropsychological Assessment Battery, mazes subtest raw score ([1]; Week 0 (baseline)): 13.56
- MATRICS/MCCB Trail Making Test, Part A raw score ([1]; Week 0 (baseline)): 42.11
- MATRICS/MCCB Wechsler Memory Scale, 3rd ed., spatial span subtest raw score ([1]; Week 0 (baseline)): 13.11
- MATRICS/MCCB Attention/vigilance domain, change in T-score ([1]; Week 0 to Week 8): 7.56
- MATRICS/MCCB Attention/vigilance domain, difference PG vs placebo in T-score change ([1]; Week 0 to Week 8): 6.89
- MATRICS/MCCB Composite, change in T-score ([1]; Week 0 to Week 8): 7.00
- MATRICS/MCCB Reasoning and Problem Solving domain, change in T-score ([1]; Week 0 to Week 8): 6.22
- MATRICS/MCCB Reasoning and Problem Solving domain, difference PG vs placebo in T-score change ([1]; Week 0 to Week 8): 0.00
- MATRICS/MCCB Social cognition domain, change in T-score ([1]; Week 0 to Week 8): −0.89
- MATRICS/MCCB Social cognition domain, difference PG vs placebo in T-score change ([1]; Week 0 to Week 8): −9.22
- MATRICS/MCCB Speed of Processing domain, change in T-score ([1]; Week 0 to Week 8): 5.44
- MATRICS/MCCB Speed of Processing domain, difference PG vs placebo in T-score change ([1]; Week 0 to Week 8): 0.78
- MATRICS/MCCB Verbal learning domain, change in T-score ([1]; Week 0 to Week 8): 3.44
- MATRICS/MCCB Verbal learning domain, difference PG vs placebo in T-score change ([1]; Week 0 to Week 8): 2.67
- MATRICS/MCCB Visual learning domain, change in T-score ([1]; Week 0 to Week 8): 3.78
- MATRICS/MCCB Visual learning domain, difference PG vs placebo in T-score change ([1]; Week 0 to Week 8): −3.78
- MATRICS/MCCB Working memory domain, change in T-score ([1]; Week 0 to Week 8): 5.11
- MATRICS/MCCB Working memory domain, difference PG vs placebo in T-score change ([1]; Week 0 to Week 8): 4.00
- MATRICS/MCCB Composite, difference PG vs placebo in T-score change ([1]; Week 0 to Week 8): 0.00
- MATRICS/MCCB Composite, difference PG vs placebo in T-score change [1, 3]: no difference
- MATRICS/MCCB Composite, change in T-score [1, 3]: 7.00±8.87
- MATRICS/MCCB Composite score ([1]; Week 4): 33.78
- MATRICS/MCCB BACS, symbol coding subtest raw score ([1]; Week 4): 44.78
- MATRICS/MCCB Brief Visuospatial Memory Test-Rev. raw score ([1]; Week 4): 21.33
- MATRICS/MCCB Category fluency test, animal naming raw score ([1]; Week 4): 18.44
- MATRICS/MCCB Continuous Performance Test (CPT), Identical Pairs version-Average d′ raw score ([1]; Week 4): 1.37
- MATRICS/MCCB Hopkins Verbal Learning Test raw score ([1]; Week 4): 20.89
- MATRICS/MCCB Letter-Number Span test raw score ([1]; Week 4): 12.67
- MATRICS/MCCB Mayer-Salovey-Caruso Emotional Intelligence Test, managing emotions branch raw score ([1]; Week 4): 90.60
- MATRICS/MCCB Neuropsychological Assessment Battery, mazes subtest raw score ([1]; Week 4): 15.67
- MATRICS/MCCB Trail Making Test, Part A raw score ([1]; Week 4): 38.33
- MATRICS/MCCB Wechsler Memory Scale, 3rd ed., spatial span subtest raw score ([1]; Week 4): 14.33
- MATRICS/MCCB Composite score ([1]; Week 8): 36.00
- MATRICS/MCCB BACS, symbol coding subtest raw score ([1]; Week 8): 38.67
- MATRICS/MCCB Brief Visuospatial Memory Test-Rev. raw score ([1]; Week 8): 22.33
- MATRICS/MCCB Category fluency test, animal naming raw score ([1]; Week 8): 20.44
- MATRICS/MCCB Continuous Performance Test (CPT), Identical Pairs version-Average d′ raw score ([1]; Week 8): 1.91
- MATRICS/MCCB Hopkins Verbal Learning Test raw score ([1]; Week 8): 21.00
- MATRICS/MCCB Letter-Number Span test raw score ([1]; Week 8): 13.11
- MATRICS/MCCB Mayer-Salovey-Caruso Emotional Intelligence Test, managing emotions branch raw score ([1]; Week 8): 86.10
- MATRICS/MCCB Neuropsychological Assessment Battery, mazes subtest raw score ([1]; Week 8): 17.33
- MATRICS/MCCB Trail Making Test, Part A raw score ([1]; Week 8): 34.33/
- MATRICS/MCCB Wechsler Memory Scale, 3rd ed., spatial span subtest raw score ([1]; Week 8): 14.22
- Serious adverse event related to study medication ([2]; 8-week trial): No patients receiving pregnenolone experienced a serious adverse event
- Side effect: Akathisia [2, 4]: 0 N (%)
- Side effect: All Other Side Effects [2, 4]: 0 N (%)
- Side effect: Blurred Vision [2, 4]: 0 N (%)
- Side effect: Diarrhea [2, 4]: 0 N (%)
- Side effect: Drowsiness [2, 4]: 0 N (%)
- Side effect: Excitation/Agitation [2, 4]: 0 N (%)
- Side effect: Headache [2, 4]: 0 N (%)
- Side effect: Impaired Sexual Performance [2, 4]: 0 N (%)
- Side effect: Insomnia [2, 4]: 0 N (%)
- Side effect: Joint Pain/Stiffness [2, 4]: 0 N (%)
- Side effect: Malaise [2, 4]: 0 N (%)
- Side effect: Nasal Congestion [2, 4]: 0 N (%)
- Side effect: Peripheral Edema [2, 4]: 0 N (%)
- Side effect: Rigidity [2, 4]: 0 N (%)
- Side effect: Sweating [2, 4]: 0 N (%)
- Side effect: Tremor [2, 4]: 0 N (%)
- Side effect: Hypertension ([2]; change from baseline pre-randomization, n = 9, mild (<145/90)): 1 (11%)^b N (%)
- Side effect: Cold Extremities [2, 5]: 1 (11%)^a N (%)
- Side effect: Decreased Interest in Sex [2, 5]: 1 (11%)^a N (%)
- Side effect: Disorientation (to date, address, mayor, or MD name) [2, 5]: 2 (22%)^a N (%)
- Side effect: Dry mouth [2, 5]: 1 (11%)^a N (%)
- Side effect: Muscle Pain/Stiffness [2, 5]: 1 (11%)^a N (%)
- Side effect: Restlessness [2, 5]: 2 (22%)^a N (%)
- Side effect: Cold Extremities [2, 6]: one report of mild cold extremities; also recorded: one instance of mild cold extremities
- Side effect: Muscle Pain/Stiffness [2, 6]: one report of mild muscle pain/stiffness; also recorded: one instance of mild muscle pain/stiffness
- Side effect: Restlessness [2, 6]: two reports of mild restlessness; also recorded: two instances of mild restlessness
- Tolerability ([2]; doses up to 500 mg/day, 8 weeks): very well-tolerated
- Weight gain, blood pressure, or pulse rate changes ([2]; during the course of the study): did not demonstrate significant weight gain, blood pressure, or pulse rate changes
